We go through 29 compounds from patent US20250325547A1, “ANTI-SARS-COV-2 DRUG” (KAGOSHIMA UNIVERSITY, priority 2021, published 2025).

Structures are written as SMILES. Read-outs that look alike come from different tables or passages of the source.

For one data set, the system named is SARS-CoV-2 (WK-521). Put plainly: microbe, parasite or virus in culture. It counts as cell-based.
Data set [1] can be described thus: in vitro. To be noted: African green monkey.
Data set [2] deals with SARS-CoV-2. In words: Anti-SARS-CoV-2 RNA assay in VeroE6/TMPRSS2 cells. The format is cell-based. To be noted: Table 5, VeroE6/TMPRSS2 (RNA).
Data set [3] deals with SARS-CoV-2. Put plainly: Anti-SARS-CoV-2 RNA assay in Vero cells. The format is cell-based. The conditions noted are these: Table 5, Vero (RNA).
Data set [4] has as its system SARS-CoV-2 (WK-521 strain). To be noted: for EC50: HEK293T/ACE2 (RNA), WK-521, MOI 0.1, 3 days.
A short description of data set [5]: in vitro. To be noted: human.
In data set [6] the test system is SARS-CoV-2 (WK-521 strain). Put plainly: microbe, parasite or virus in culture. The conditions noted are these: Severe acute respiratory syndrome coronavirus 2, HEK-293T, 72 h.
[7] abbreviates: Severe acute respiratory syndrome coronavirus 2, 72 h, read-out: EC50 (50% effective concentration, inhibits cell death induced by SARS-CoV-2 infection by 50%), VeroE6/TMPRSS2 cells, SARS-CoV-2 WK-521, MOI 0.01, 3 days, Tables 1-4.
[8] abbreviates: read-out: EC50 (50% effective concentration, inhibits cell death induced by SARS-CoV-2 infection by 50%), VeroE6/TMPRSS2 cells, SARS-CoV-2 WK-521, MOI 0.01, 3 days, Tables 1-4.
Setting [9] is: read-out: CC50 (50% toxicity concentration, reduces the number of viable cells in non-infected cells by 50%), non-infected VeroE6/TMPRSS2 cells, 3 days, Tables 1-4.
The mark [10] stands for this setting: read-out: EC50 (50% effective concentration, inhibits cell death induced by SARS-CoV-2 infection by 50%).
[11] abbreviates: Table 5, HEK293T/ACE2, lower row.
Where [12] appears, read: Severe acute respiratory syndrome coronavirus 2.

As to `C[C@@H]1CN(Cc2cc(Nc3ncnc4ccccc34)cc(Cl)c2O)[C@@H](C)CN1C` (racemic) [Compound 33], the EC50 with SARS-CoV-2 (WK-521) (setting [7]) was found to be 54.7 µM. In addition, the CC50 at 3 days in the data set “in vitro [1]” is > 100 µM.
Taken in the same sequence, the figures for `CCN(CC)Cc1cc(Nc2ncnc3ccccc23)cc(Br)c1O` [Compound 3] were 23.9 µM and > 100 µM.
In the case of `CCN(CC)Cc1cc(Nc2ncnc3ccccc23)cc(I)c1O` [Compound 4], the EC50 with SARS-CoV-2 (WK-521) (setting [7]) was found to be 16.9 µM. In addition, the CC50 at 3 days in “in vitro [1]” was > 100 µM.
On to `CCN(CC)Cc1cc(Nc2ncnc3cc(OC)c(OC)cc23)cc(I)c1O` [Compound 5], for which, in the data set with SARS-CoV-2 (WK-521) (setting [7]), the EC50 was 31.6 µM. The CC50 at 3 days in “in vitro [1]” is > 100 µM.
In the case of `CCN(CC)Cc1cc(Nc2nc(N(C)C)nc3ccccc23)cc(I)c1O` [Compound 6], in the data set with SARS-CoV-2 (WK-521) (setting [7]), the EC50 stood at 12.9 µM. Also, the CC50 at 3 days in the data set “in vitro [1]” was 49.9 µM.
Taken in the same sequence, the figures for `CCN(CC)Cc1cc(Nc2nc(N(C)C)nc3ccccc23)cc(Cl)c1O` [Compound 7] were 7.2 µM and 49.2 µM.
Consider `CCN(C)Cc1cc(Nc2ncnc3ccccc23)cc(I)c1O` [Compound 8], for which the EC50 with SARS-CoV-2 (WK-521) (setting [8]) was 57.6 µM. The CC50 with VeroE6/TMPRSS2 cells (setting [9]) is > 100 µM.
As for `CN(Cc1ccccc1)Cc1cc(Nc2ncnc3ccccc23)cc(I)c1O` [Compound 9], the EC50 with SARS-CoV-2 (WK-521) (setting [8]) came to 8 µM. Also, the CC50 in the data set with VeroE6/TMPRSS2 cells (setting [9]) stood at 38.1 µM.
For `CN1CCN(Cc2cc(Nc3ncnc4ccccc34)cc(I)c2O)CC1` [Compound 10], the EC50 in the data set on SARS-CoV-2 (WK-521) (setting [8]) turned out to be 15.5 µM. Further, the CC50 in the data set on VeroE6/TMPRSS2 cells (setting [9]) is > 100 µM.
For `CCN(Cc1cc(Nc2ncnc3ccccc23)cc(Cl)c1O)C(C)C` [Compound 11], the EC50 in the data set on SARS-CoV-2 (WK-521) (setting [10]) was found to be 7.6 µM; in the data set with SARS-CoV-2 [2] it was 1.9 µM; in the data set on SARS-CoV-2 [3] it was 5.5 µM; in data set [4] it was 0.12 µM. Further, the CC50 with VeroE6/TMPRSS2 cells (Table 5, VeroE6/TMPRSS2 (CPE)) is > 100 µM; in the data set on VeroE6/TMPRSS2 cells (setting [9]), > 100 µM; in the data set with HEK293T/ACE2 cells (setting [11]), 85.4 µM.
Consider `CCNCc1cc(Nc2ncnc3ccccc23)cc(I)c1O` [Compound 13], for which the EC50 with SARS-CoV-2 (WK-521) (setting [7]) amounted to 44.7 µM. The CC50 at 3 days in the data set “in vitro [1]” was > 100 µM.
`CC(C)N(Cc1cc(Nc2ncnc3ccccc23)cc(Cl)c1O)C(C)C` [Compound 15]: the EC50 came to 3.3 µM in the data set with SARS-CoV-2 (WK-521) (setting [10]), 1.9 µM in the data set on SARS-CoV-2 [2], 1.7 µM in the data set with SARS-CoV-2 [3] and 0.12 µM in [4]. Moreover, the CC50 in the data set with VeroE6/TMPRSS2 cells (Table 5, VeroE6/TMPRSS2 (CPE)) is > 100 µM; in the data set with VeroE6/TMPRSS2 cells (setting [9]) it was > 100 µM; in the data set with HEK293T/ACE2 cells (setting [11]) it was > 100 µM; in the data set with HEK293T/ACE2 cells (read-out: 50% toxicity concentration (CC50), HEK293T/ACE2 cells, text b80), > 100 µM. For the same compound, the “selectivity coefficient (CC50/EC50)” value in data set [4] was > 833.
With `CC(C)N(Cc1cc(Nc2ncnc3ccccc23)cc(I)c1O)C(C)C` [Compound 16], the EC50 in the data set on SARS-CoV-2 (WK-521) (setting [8]) is 44.6 µM. Besides, the CC50 in the data set with VeroE6/TMPRSS2 cells (setting [9]) is > 100 µM.
On to `CCN(Cc1cc(Nc2ncnc3ccccc23)cc(Cl)c1O)C1CCCCC1` [Compound 19], for which the EC50 in the data set with SARS-CoV-2 (WK-521) (Severe acute respiratory syndrome coronavirus 2, Table 5, VeroE6/TMPRSS2 (CPE), read-out: EC50) amounted to 3.2 µM; in the data set on SARS-CoV-2 [2] (setting [12]), 2.9 µM; in the data set on SARS-CoV-2 [3] (setting [12]), 2.9 µM; in [6] it was 0.14 µM. Also, the CC50 in the data set with VeroE6/TMPRSS2 cells (African green monkey, 3 days) was > 100 µM. Moreover, the results for the CC50 at 3 days in “in vitro [1]” and in the data set “in vitro [5]” were > 100 µM and 36.1 µM, respectively.
`CCN(Cc1cc(Nc2ncnc3ccccc23)cc(Cl)c1O)C(C)(C)C` [Compound 20]: the EC50 in the data set on SARS-CoV-2 (WK-521) (setting [7]) stood at 3.9 µM. Besides, in the data set “in vitro [1]”, the CC50 at 3 days is > 100 µM.
With `CCCN(Cc1cc(Nc2ncnc3ccccc23)cc(Cl)c1O)C(C)C` [Compound 21], in the data set on SARS-CoV-2 (WK-521) (setting [7]), the EC50 worked out at 11.7 µM. Moreover, the CC50 at 3 days in the data set “in vitro [1]” is > 100 µM.
On the same counts, the results for `CC(C)N(Cc1cc(Nc2ncnc3ccccc23)cc(Cl)c1O)C(C)(C)C` [Compound 22] are 10.8 µM and > 100 µM.
Taken in the same sequence, the figures for `CCCN(CCC)Cc1cc(Nc2ncnc3ccccc23)cc(Cl)c1O` [Compound 23] were 15.3 µM and > 100 µM.
On to `CC1CC(C)CN(Cc2cc(Nc3ncnc4ccccc34)cc(Cl)c2O)C1` (stereo not drawn) [Compound 24], for which the EC50 in the data set on SARS-CoV-2 (WK-521) (setting [7]) stood at 2.1 µM. Moreover, the CC50 at 3 days in “in vitro [1]” is > 100 µM.
Take `CC(C)N(Cc1cc(Nc2ncnc3cc(F)ccc23)cc(Cl)c1O)C(C)C` [Compound 25]: the EC50 with SARS-CoV-2 (WK-521) (setting [7]) was determined as 2.5 µM. Further, the CC50 at 3 days in “in vitro [1]” was > 100 µM.
Consider `CCN(Cc1cc(Nc2ncnc3ccccc23)ccc1O)c1ccc(Cl)cc1` [Compound 26], for which the EC50 with SARS-CoV-2 (WK-521) (setting [7]) amounted to 11.7 µM. For the same compound, in “in vitro [1]”, the CC50 at 3 days was > 100 µM.
Regarding `CC(C)N(Cc1cc(Nc2ncnc3ccccc23)ccc1O)c1ccc(Cl)cc1` [Compound 27], the EC50 in the data set with SARS-CoV-2 (WK-521) (setting [7]) was found to be 13.9 µM. For the same compound, the CC50 at 3 days in the data set “in vitro [1]” was > 100 µM.
For `CCN(Cc1cc(Nc2ncnc3ccccc23)cc(Cl)c1O)c1ccc(Cl)cc1` [Compound 28], the EC50 with SARS-CoV-2 (WK-521) (setting [7]) amounted to 10 µM. In addition, the CC50 at 3 days in “in vitro [1]” is > 100 µM.
Turning to `CC(C)N(Cc1ccncc1)Cc1cc(Nc2ncnc3ccccc23)cc(Cl)c1O` [Compound 29], the EC50 in the data set on SARS-CoV-2 (WK-521) (setting [7]) turned out to be 10.6 µM. The CC50 at 3 days in the data set “in vitro [1]” was > 100 µM.
As to `CCN(Cc1cc(Nc2ncnc3ccccc23)cc(Cl)c1O)c1ccc(F)c(Cl)c1` [Compound 30], in the data set with SARS-CoV-2 (WK-521) (setting [7]), the EC50 turned out to be 10.8 µM. In addition, the CC50 at 3 days in “in vitro [1]” was > 100 µM.
With `C[C@H]1C[C@H](C)CN(Cc2cc(Nc3ncnc4ccccc34)cc(Cl)c2O)C1` [Compound 31], in the data set with SARS-CoV-2 (WK-521) (setting [7]), the EC50 was determined as 19.4 µM. Further, the CC50 at 3 days in the data set “in vitro [1]” is 37.5 µM.
`CCN(Cc1cc(Nc2ncnc3ccccc23)cc(Cl)c1O)CC(C)(C)C` [Compound 32]: the EC50 with SARS-CoV-2 (WK-521) (setting [7]) was determined as 20 µM. In the data set “in vitro [1]”, this compound gave a CC50 at 3 days of 60.2 µM.
`CC(C)N(Cc1cc(Nc2ncnc3ccccc23)cc(Cl)c1O[C@H]1O[C@@H](C)[C@@H](O)[C@@H](O)[C@@H]1O)C(C)C` [Compound 34]: the EC50 in the data set on SARS-CoV-2 (WK-521) (setting [7]) came out at 60.2 µM. For the same compound, the CC50 at 3 days in “in vitro [1]” is > 100 µM.
Take `CC(C)(C)[C@H](NC(=O)C(F)(F)F)C(=O)N1C[C@H]2[C@@H]([C@H]1C(=O)N[C@H](C#N)C[C@@H]1CCNC1=O)C2(C)C` [Nirmatrelvir, reference compound]: the EC50 in the data set with SARS-CoV-2 (WK-521) (Severe acute respiratory syndrome coronavirus 2, VeroE6/TMPRSS2, 72 h, read-out: EC50 (50% effective concentration, inhibits cell death induced by SARS-CoV-2 infection by 50%)) stood at 8.3 µM. In the data set “in vitro [1]”, the CC50 was > 100 µM.
